From patent US6642217B2, “Triterpenes having human antifungal and antiyeast activity” (Naturtek, LLC, priority 2000, dated 2003)

How the values were obtained:
Microsporum audouinni [1] = experiment: Direct addition method, solid compound in Sabouraud dextrose agar; format: cell-based, Microsporum audouinii; parameters: key to Fungal growth: +++: Maximum Fungal Growth; ++: Moderate Fungal Growth; +: Minimum Fungal Growth; +/−: Very little Fungal Growth; −: No Fungal Growth; settings: 4 mg/mL of agar; 12th day after inoculation
Experimental: (§1) Direct addition method. Sabouraud dextrose agar was prepared according to the manufacturer's instructions and 5.0 ml was dispensed in each 100×25 mm tube. The tubes were autoclaved. To each tube containing 5.0 ml of liquid agar at 45° C., 20 mg of solid test compound was added, to give a final concentration of 4 mg/ml. The agar was solidified in slants. The fungal cultures were then innoculated. The slants were incubated at 25-28 ° C. for 10-12 days, and the growth of the fungus was recorded every second day. The results in Table 2 indicate growth at the 12th day of inoculation.

Pityrosporum ovale [2] = experiment: Direct addition into the Pityrosporum agar; format: cell-based; parameters: key to Pityrosporum ovale growth: +++: Maximum Growth; ++: Moderate Growth; +: Minimum Growth; +/−: Very Little Growth; −: No Growth; settings: for Pityrosporum ovale growth: 4 mg/ml in the agar, 18 hours after inoculation
Experimental: as §1, with “The slants were incubated at 25-28 ° C. for 10-12 days, and the growth of the fungus was recorded every second day. The results in Table 2 indicate growth at the 12th day of inoculation.” left out

Epidermophyton floccosum [3] = experiment: Direct addition method, solid compound in Sabouraud dextrose agar; format: cell-based; parameters: key: +++: Maximum Fungal Growth; ++: Moderate Fungal Growth; +: Minimum Fungal Growth; +/−: Very little Fungal Growth; −: No Fungal Growth; settings: 4 mg/mL of agar; 12th day after inoculation
Experimental: as §1

Microsporum canis [4] = experiment: as above; format: cell-based; parameters: key: +++: Maximum Fungal Growth; ++: Moderate Fungal Growth; +: Minimum Fungal Growth; +/−: Very little Fungal Growth; −: No Fungal Growth; settings: 4 mg/mL of agar; 12th day after inoculation
Experimental: as §1

Pityrosporum ovale [5] = experiment: as above; format: cell-based; parameters: key: +++: Maximum Fungal Growth; ++: Moderate Fungal Growth; +: Minimum Fungal Growth; +/−: Very little Fungal Growth; −: No Fungal Growth; settings: 4 mg/mL of agar; 12th day after inoculation
Experimental: as §1

Trichophyton rubrum [6] = experiment: as above; format: cell-based; parameters: key: +++: Maximum Fungal Growth; ++: Moderate Fungal Growth; +: Minimum Fungal Growth; +/−: Very little Fungal Growth; −: No Fungal Growth; settings: 4 mg/mL of agar; 12th day after inoculation
Experimental: as §1

Microsporum canis [7] = experiment: Agar dilution method, growth on Sabouraud dextrose agar slants; format: cell-based; parameters: key: +++: Maximum Fungal Growth; ++: Moderate Fungal Growth; +: Minimum Fungal Growth; +/−: Very little Fungal Growth; −: No Fungal Growth; settings: 12th day after inoculation
Experimental: (§2) Agar dilution method. Sabouraud Dextrose Agar (Difco Laboratories, Michigan) was prepared according to the manufacturer's instructions. Five ml was dispensed in a 100×25 mm tube and autoclaved. To each tube containing 5.0 ml of liquid agar at 45° C., 0.5, 0.25, 0.12, or 0.063 ml of a DMSO solution of the compound was added to give the final indicated concentrations in Table 2. The agar was then solidified in slants. Fungal cultures were inoculated. The slants were incubated at 25-28° C. for 10-12 days, and the growth of the fungus was recorded every second day.

Microsporum gypseum = experiment: as above; format: cell-based; parameters: key: +++: Maximum Fungal Growth; ++: Moderate Fungal Growth; +: Minimum Fungal Growth; +/−: Very little Fungal Growth; −: No Fungal Growth; settings: 12th day after inoculation
Experimental: as §2

Pityrosporum ovale [8] = experiment: as above; format: cell-based; parameters: key: +++: Maximum Fungal Growth; ++: Moderate Fungal Growth; +: Minimum Fungal Growth; +/−: Very little Fungal Growth; −: No Fungal Growth; settings: 12th day after inoculation
Experimental: as §2

Trichophyton rubrum [9] = experiment: as above; format: cell-based; parameters: key: +++: Maximum Fungal Growth; ++: Moderate Fungal Growth; +: Minimum Fungal Growth; +/−: Very little Fungal Growth; −: No Fungal Growth; settings: 12th day after inoculation
Experimental: as §2

Microsporum audouinni [10] = experiment: as above; format: cell-based, Microsporum audouinii; parameters: key: +++: Maximum Fungal Growth; ++: Moderate Fungal Growth; +: Minimum Fungal Growth; +/−: Very little Fungal Growth; −: No Fungal Growth; settings: 12th day after inoculation
Experimental: as §2

Trichophyton tonsuran = experiment: as above; format: cell-based, Trichophyton tonsurans; parameters: key: +++: Maximum Fungal Growth; ++: Moderate Fungal Growth; +: Minimum Fungal Growth; +/−: Very little Fungal Growth; −: No Fungal Growth; settings: 12th day after inoculation
Experimental: as §2

[11] = system: Trichophyton mentagrophyte; experiment: as above; format: cell-based, Trichophyton mentagrophytes; parameters: key to Fungal growth: +++: Maximum Fungal Growth; ++: Moderate Fungal Growth; +: Minimum Fungal Growth; +/−: Very little Fungal Growth; −: No Fungal Growth; settings: for Fungal growth: 12th day after inoculation
Experimental: as §2

Epidermophyton floccosum [12] = experiment: as above; format: cell-based; parameters: key to Fungal growth: +++: Maximum Fungal Growth; ++: Moderate Fungal Growth; +: Minimum Fungal Growth; +/−: Very little Fungal Growth; −: No Fungal Growth; settings: 12th day after inoculation
Experimental: as §2

## CC1(C)CCC23CCC4(C)C(CCC5C6(C)CCC(OC(=O)CN)C(C)(C)C6CCC54C)C2C1OC3 (stereo not shown) [Allobetulin-3-glycine]
Microsporum audouinni [1]
  Fungal growth: +
Pityrosporum ovale [2]
  Pityrosporum ovale growth: +
Epidermophyton floccosum [3]
  Fungal growth: −
Microsporum canis [4]
  Fungal growth: +
Pityrosporum ovale [5]
  Fungal growth: −
Trichophyton rubrum [6]
  Fungal growth: ++

## C=C(C)[C@@H]1CC[C@]2(COC(=O)COCC(=O)O)CC[C@]3(C)[C@H](CC[C@@H]4[C@@]5(C)CC[C@H](OC(=O)COCC(=O)O)C(C)(C)[C@@H]5CC[C@]43C)[C@@H]12 [Betulin-3,28-didiglycolate]
Microsporum canis [7]; 125 μg/ml
  Fungal growth: +++
Microsporum canis [7]; 250 μg/ml
  Fungal growth: +++
Microsporum canis [7]; 500 μg/ml
  Fungal growth: +
Microsporum canis [7]; 1000 μg/ml
  Fungal growth: −
Microsporum gypseum; 125 μg/ml
  Fungal growth: +++
Microsporum gypseum; 250 μg/ml
  Fungal growth: +++
Microsporum gypseum; 500 μg/ml
  Fungal growth: ++
Microsporum gypseum; 1000 μg/ml
  Fungal growth: −
Pityrosporum ovale [8]; 125 μg/ml
  Fungal growth: +++
Pityrosporum ovale [8]; 250 μg/ml
  Fungal growth: +++
Pityrosporum ovale [8]; 500 μg/ml
  Fungal growth: ++
Pityrosporum ovale [8]; 1000 μg/ml
  Fungal growth: +/−
Trichophyton rubrum [9]; 125 μg/ml
  Fungal growth: ++
Trichophyton rubrum [9]; 250 μg/ml
  Fungal growth: +
Trichophyton rubrum [9]; 500 μg/ml
  Fungal growth: +
Trichophyton rubrum [9]; 1000 μg/ml
  Fungal growth: −
Microsporum audouinni [10]; 125 μg/ml
  Fungal growth: ++
Microsporum audouinni [10]; 250 μg/ml
  Fungal growth: ++
Microsporum audouinni [10]; 500 μg/ml
  Fungal growth: −
Microsporum audouinni [10]; 1000 μg/ml
  Fungal growth: −
Trichophyton tonsuran; 125 μg/ml
  Fungal growth: ++
Trichophyton tonsuran; 250 μg/ml
  Fungal growth: +
Trichophyton tonsuran; 500 μg/ml
  Fungal growth: +
Trichophyton tonsuran; 1000 μg/ml
  Fungal growth: −
[11]; 125 μg/ml
  Fungal growth: +
[11]; 250 μg/ml
  Fungal growth: +
[11]; 500 μg/ml
  Fungal growth: +/−
[11]; 1000 μg/ml
  Fungal growth: −
[11]; against Trichophyton mentagrophytes
  best antifungal or anti-yeast activity by the agar dilution method: against Trichophyton mentagrophytes
Epidermophyton floccosum [12]; 125 μg/ml
  Fungal growth: ++
Epidermophyton floccosum [12]; 250 μg/ml
  Fungal growth: +
Epidermophyton floccosum [12]; 500 μg/ml
  Fungal growth: −
Epidermophyton floccosum [12]; 1000 μg/ml
  Fungal growth: −

## C=C(C)[C@@H]1CC[C@]2(COC(=O)CCCC(=O)O)CC[C@]3(C)[C@H](CC[C@@H]4[C@@]5(C)CC[C@H](OC(=O)CCCC(=O)O)C(C)(C)[C@@H]5CC[C@]43C)[C@@H]12 [Betulin-3,28-diglutarate]
Microsporum audouinni [1]
  Fungal growth: +
Pityrosporum ovale [2]; 4 mg/ml
  Growth inhibition of Pityrosporum ovale by the direct addition method: inhibited the growth
Pityrosporum ovale [2]
  Pityrosporum ovale growth: +/−
Epidermophyton floccosum [3]
  Fungal growth: −
Microsporum canis [4]
  Fungal growth: +
Pityrosporum ovale [5]
  Fungal growth: −
Trichophyton rubrum [6]
  Fungal growth: +
